Measurements: the NIST ThermoML archive (doi:10.1016/j.jct.2019.04.006)

Assay: molar heat capacity at constant pressure
Conditions: 101.33 kPa, Crystal, DSC

CSCCC(N)C(=O)O (racemic) [DL-2-amino-4-(methylthio)butanoic acid]
Conditions	molar heat capacity at constant pressure [J/K/mol]
208.72 K	145.39
210.22 K	145.59
211.72 K	146.57
213.72 K	147.97
216.22 K	150.38
218.22 K	152.14
221.72 K	155.91
224.22 K	157.49
226.72 K	159.11
227.22 K	159.42
230.22 K	161.3
233.22 K	162.93
236.22 K	164.63
239.22 K	166.6
243.22 K	168.79
247.22 K	170.83
252.22 K	173.41
256.72 K	176.16
260.72 K	178.94
264.22 K	181.37
268.72 K	184.35
271.22 K	184.84
273.22 K	187.3
276.72 K	190.45
279.72 K	192.56
283.22 K	194.93
287.22 K	196.84
291.72 K	199.53
292.22 K	199.85
293.22 K	200.43
294.22 K	201.59
295.22 K	202.47
297.72 K	205.07
298.15 K	205.16
298.22 K	205.65
298.72 K	205.99
301.72 K	208.47
303.72 K	209.85
305.72 K	211.52
307.72 K	212.85
310.22 K	214.89
314.22 K	218.21
318.22 K	222.26
321.22 K	225.76

O=C(O)c1ccccc1 [benzoic acid]
Conditions	molar heat capacity at constant pressure [J/K/mol]
208.72 K	104.86
210.22 K	105.69
211.72 K	106.52
213.72 K	107.61
216.22 K	108.96
218.22 K	110.02
221.72 K	111.86
224.22 K	113.15
226.72 K	114.43
227.22 K	114.68
230.22 K	116.19
233.22 K	117.68
236.22 K	119.14
239.22 K	120.59
243.22 K	122.5
247.22 K	124.38
252.22 K	126.69
256.72 K	128.74
260.72 K	130.54
264.22 K	132.1
268.72 K	134.09
271.22 K	135.19
273.22 K	136.06
276.72 K	137.59
279.72 K	138.9
283.22 K	140.41
287.22 K	142.15
291.72 K	144.1
292.22 K	144.31
293.22 K	144.75
294.22 K	145.18
295.22 K	145.61
297.72 K	146.7
298.15 K	146.89
298.22 K	146.92
298.72 K	147.13
301.72 K	148.44
303.72 K	149.32
305.72 K	150.19
307.72 K	151.07
310.22 K	152.18
314.22 K	153.96
318.22 K	155.75
321.22 K	157.11
